Test results as given in ChEMBL document CHEMBL3272046, “Adrenerigic agents. 7.1 Synthesis and beta-adrenergic agonist activity of several 2-pyridylethanolamines” (J Med Chem, 1977).

What was measured:
Format in all cases: tissue-based
[1] = organism: Cavia porcellus; assay: Agonist activity at beta-adrenergic receptor in guinea pig tracheal tissue assessed as bronchodilator activity; conditions: Trachea
[2] = organism: Cavia porcellus; assay: Agonist activity at beta-adrenergic receptor in guinea pig right atrial muscle assessed as rate of contraction of spontaneously beating atria; conditions: Cardiac atrium
[3] = organism: Cavia porcellus; assay: Intrinsic activity at beta-adrenergic receptor in guinea pig right atrial muscle assessed as rate of contraction of spontaneously beating atria relative to isoproterenol; conditions: Cardiac atrium
[4] = organism: Cavia porcellus; assay: Selectivity ratio of ED25 for beta-adrenergic receptor in guinea pig right atrial muscle to ED50 for beta-adrenergic receptor in guinea pig tracheal tissue; conditions: Cardiac atrium
[5] = organism: Cavia porcellus; assay: Agonist activity at beta-adrenergic receptor in guinea pig right atrial muscle assessed as rate of contraction of spontaneously beating atria at 9.9 x 10^-5 M; conditions: Cardiac atrium
[6] = organism: Cavia porcellus; assay: Agonist activity at beta-adrenergic receptor in guinea pig right atrial muscle assessed as rate of contraction of spontaneously beating atria at 1.7 x 10^-5 M; conditions: Cardiac atrium

Compound | ED50 [1] | ED25 [2] | Intrinsic activity [3] | Selectivity ratio [4] | Activity [5] [%] | Activity [6] [%]
CC(C)NCC(O)c1ccc(O)cc1 (stereo not given) | 1.1 ×10⁻⁷ M | 7.7 ×10⁻⁸ M | 0.8 | 0.7 |  | 
CC(C)(C)NCC(O)c1ccc(O)c(CS(C)(=O)=O)c1 (stereo not given) | 1.7 ×10⁻⁸ M | 2.8 ×10⁻⁵ M | 0.3 | 1650 |  | 
CC(C)NCC(O)c1ccc(O)c(O)c1 (stereo not given) | 7.1 ×10⁻⁹ M | 3.4 ×10⁻⁹ M |  |  |  | 

Continued, values first:

ED50 [1] | ED25 [2] | Intrinsic activity [3] | Selectivity ratio [4] | Activity [5] [%] | Activity [6] [%] | Compound
2.8 ×10⁻⁹ M | 1.2 ×10⁻⁷ M | 0.8 | 43 |  |  | CC(C)(C)NCC(O)c1ccc(O)c(CO)n1 (stereo not given)
2.8 ×10⁻⁷ M | 1 ×10⁻⁵ M | 0.4 | 36 |  |  | Cc1nc(C(O)CNC(C)(C)C)ccc1O (stereo not given)
2.9 ×10⁻⁸ M | 9.9 ×10⁻⁵ M |  | > 3410 | 13 |  | CC(C)(C)NCC(O)c1ccc(O)c(CS(C)(=O)=O)n1 (stereo not given)
3.1 ×10⁻⁷ M | 1.7 ×10⁻⁵ M |  | > 182 |  | 7 | CC(C)(C)NCC(O)c1ccc(O)cn1 (stereo not given)
1.1 ×10⁻⁸ M | 3.1 ×10⁻⁷ M | 0.7 | 28 |  |  | CC(C)(C)NCC(O)c1ccc(O)c(CO)c1 (stereo not given)
